Legend:
[1] = Ring tensiometer
[2] = xn = mol fraction of the nth substance listed; conditions: Ring tensiometer

CC(C)(C)O [2-methylpropan-2-ol]
[1]
Conditions	surface tension liquid-gas [mN/m]
298.15 K	19.96
308.15 K	19.26
318.15 K	18.35
328.15 K	17.62

CC(C)(C)O [2-methylpropan-2-ol] + C[S+](C)[O-]
surface tension liquid-gas [mN/m], [2]
Conditions	298.15 K	308.15 K	318.15 K	328.15 K
x1 = 0.0183	39.25	38.29	37.56	36.51
x1 = 0.0361	36.85	36.01	35.32	34.28
x1 = 0.0695	34.2	33.39	32.73	31.66
x1 = 0.1008	32.36	31.54	30.78	29.89
x1 = 0.1301	31.04	30.17	29.53	28.54
x1 = 0.1832	29.19	28.35	27.71	26.83
x1 = 0.2302	28.08	27.23	26.53	25.71
x1 = 0.3096	26.31	25.51	24.96	24.17
x1 = 0.4022	24.98	24.21	23.69	22.86
x1 = 0.4928	23.72	23.02	22.37	21.63
x1 = 0.5736	22.87	22.01	21.36	20.63
x1 = 0.6322	22.19	21.4	20.85	20.06
x1 = 0.6767	21.72	21.02	20.47	19.71
x1 = 0.7115	21.51	20.85	20.18	19.38
x1 = 0.8511	20.64	19.92	19.03	18.26
x1 = 1	19.96	19.26	18.35	17.62

CC(C)CCO [3-methylbutan-1-ol]
[1]
Conditions	surface tension liquid-gas [mN/m]
298.15 K	22.83
308.15 K	22.02
318.15 K	21.3
328.15 K	20.49

CC(C)CCO [3-methylbutan-1-ol] + C[S+](C)[O-]
surface tension liquid-gas [mN/m], [2]
Conditions	298.15 K	308.15 K	318.15 K	328.15 K
x1 = 0.0033	41.6	40.66	39.65	38.38
x1 = 0.0065	40.98	40.12	39.19	37.83
x1 = 0.0129	40.07	39.09	38.42	37.08
x1 = 0.0255	38.5	37.78	37.05	35.84
x1 = 0.0377	37.32	36.8	35.85	34.87
x1 = 0.0783	34.25	33.78	32.99	32.37
x1 = 0.1307	31.96	31.49	30.9	30.18
x1 = 0.1774	30.51	30	29.39	28.79
x1 = 0.2572	28.72	28.06	27.39	26.8
x1 = 0.323	27.65	27.06	26.37	25.6
x1 = 0.378	26.87	26.28	25.59	24.91
x1 = 0.4456	26	25.48	24.78	23.98
x1 = 0.4999	25.54	24.81	24.06	23.39
x1 = 0.5578	25	24.23	23.51	22.81
x1 = 0.6036	24.54	23.78	22.99	22.19
x1 = 0.6491	24.14	23.36	22.7	21.82
x1 = 0.6851	23.81	23.11	22.46	21.51
x1 = 0.786	23.42	22.69	22.01	21.16
x1 = 0.8875	23.16	22.41	21.64	20.89
x1 = 0.9511	22.95	22.2	21.46	20.68
x1 = 1	22.83	22.02	21.3	20.49

C[S+](C)[O-] [dimethyl sulfoxide]
[1]
Conditions	surface tension liquid-gas [mN/m]
298.15 K	42.28
308.15 K	41.18
318.15 K	40.14
328.15 K	38.93

C[S+](C)[O-] [dimethyl sulfoxide] + CC(C)(C)O
[2], x2 = 0
Conditions	surface tension liquid-gas [mN/m]
298.15 K	42.28
308.15 K	41.18
318.15 K	40.14
328.15 K	38.93

C[S+](C)[O-] [dimethyl sulfoxide] + CC(C)CCO
[2], x2 = 0
Conditions	surface tension liquid-gas [mN/m]
298.15 K	42.28
308.15 K	41.18
318.15 K	40.14
328.15 K	38.93

From the NIST ThermoML archive (doi:10.1016/j.jct.2014.06.005)
